Experimental data taken from patent US9814740B2, “Methods and compositions combining immunotherapy with monocyte activation” (Duke University, priority 2010, dated 2017).

What was measured:
mouse spleen B cells = assay: B10pro cell maturation in vitro (mouse); assay type: cell-based; settings: purified mouse spleen B cells, 48 h
Experimental: (§1) For IL-10 detection, mouse spleen or blood mononuclear cells, BL3750 tumor cells, or human blood were resuspended (2×10^6 cells/ml) in complete medium [RPMI 1640 media (Cellgro, Herndon, Va.) containing 10% FCS (Sigma, St. Louis, Mo.). […]. 4 mM L-Glutamine (all Cellgro), and 55 μM 2-mercaptoethanol (Invitrogen, Carlsbad. CA)] with lipopolysaccharide (LPS, 10 μg/ml, Escherichia coli serotype 0111: B4, Sigma), phorbol myristate acetate (PMA, 50 ng/ml; Sigma), ionomycin (500 ng/ml; Sigma), and monensin (2 μM; eBioscience) for 5 h. B10 progenitor cells were induced to mature and acquire IL-10 competence in vitro by culturing the cells with LPS (10 μg/ml), CpG (human ODN 2006, 10 μg/ml; Invivogen, San Diego, Calif., mouse ODN 1668, 10 μg/ml; Integrated DNA Technologies, Coralville, Iowa), or poly I:C (Invivogen) for 48 h with the addition of monensin, PMA and ionomycin for the last 5 h of culture. For TNF-α detection, bone marrow cells were resuspended (2×10^6 cells/ml) in complete medium with Brefeldin A (1 μl; Biolegend) and TLR agonists (25 μg/ml) for 4 h. Before cell surface staining, Fc receptors were blocked using Fc receptor mAb (2.4G2; BD Biosciences), and dead cells were labeled using a LIVE/DEAD® Fixable Green Dead Cell Stain Kit (Invitrogen-Molecular Probes). […]

[1] = system: purified mouse spleen B cells; assay: Secreted IL-10 ELISA; assay type: cell-based; settings: 25 μg/ml, 72 h
Experimental: Cytokine ELISA. Secreted IL-10 was quantified by ELISA. Purified B cells (4×10^5) were cultured in 0.2 ml of complete medium with TLR agoninsts (25 μg/ml) in a 96-well flat-bottom tissue culture plates. Culture supernatant fluid IL-10 concentrations were quantified using IL-10 OptEIA ELISA kits (BD PharMingen) bfollowing the manufacturer's protocols. All assays were carried out using triplicate samples.

[2] = system: human blood mononuclear cells; assay: B10pro cell maturation in vitro (human); assay type: cell-based; settings: 48 h, CpG = human ODN 2006
Experimental: as §1

[3] = system: bone marrow CD11b+ monocytes; assay: TLR-induced TNF-α production by CD11b+ bone marrow cells; assay type: cell-based, mouse; settings: TLR agonists 25 μg/ml, 4 h, Brefeldin A
Experimental: as §1

purified spleen B cells = assay: B cell proliferation assay (CFSE); assay type: cell-based, mouse; settings: 25 μg/ml, 72 h
Experimental: Proliferation assay. Splenic B cells were purified using CD19 mAb-coated microbeads (Miltenyi) and labeled with CFSE Vybrant™ CFDA SE fluorescent dye (5 μM; Invitrogen). Labeled B cells were then cultured in medium with LPS, CpG, or poly I:C (25 μg/ml) for 72 h and assessed by flow cytometry.

peritoneal B cells = assay: Peritoneal B cell depletion by CD20 mAb with TLR agonists; assay type: in vivo, mouse; settings: MyD88^−/− versus C57BL/6 mice
Text: Immunofluorescence analysis. CD20 expression was visualized using biotin-conjugated mouse CD20 (MB20-11) mAb (Uchida et al., 2004b) plus phycoerythrin-Cy5 (PE-Cy5) streptavidin (eBioscience, San Diego, Calif.). Other mAbs included: B220 (RA3-6B2), CD1d (1B1), CD5 (53-7.3), CD19 (1D3), NK1.1 (PK136), and I-A/I-E (M5/114.15.2) from BD Biosciences (San Jose, Calif.). CD11b (M1/70), CD86 (GL1), F4/80 (BM8), IgM (II/41), Gr-1 (RB6-8C5), and IL-10 (JES5-16E3) mAbs were from eBioscience. TNF-α (MP6-XT22) mAb was from Biolegend (San Diego, Calif.). For immunofluorescence analysis, single cell suspensions (10^6 cells) were stained at 4° C. using predetermined optimal concentrations of mAb for 30 minutes as described (Sato et al., 1996). CD20 immunotherapy and TLR agonist treatments. Sterile mouse anti-mouse CD20 mAb (MB20-11, IgG2c) and unreactive mouse control IgG2a mAb were as described ([…]-Colin et al., 2008). In some experiments, mice were treated with anti-NK1.1 mAb ([…]) on day -4 and day 3 for N K cell depletion. Macrophage deficiency was generated by tail vein injections of clodronate-encapsulated liposomes (Sigma-Aldrich) or control PBS-encapsulated liposomes (Van Rooijen and Sanders, 1994) 0.2 ml given on day -1 and 0.1 ml given on days 2, 5, and 9 (FIG. 3B) or 0.2 ml given on days -2, 1, and 4 (FIG. 3C). […]

FcγRII/III = FcγRII/III expression by innate effector cells after TLR agonist treatment; assay type: in vivo, mouse; settings: splenocytes 18 h after treatment
Experimental: FIG. 4 is a set of graphs showing that TLR agonists induce monocyte activation and enhance CD20 mAb-induced B cell depletion. […] Splenocytes were isolated from mice 18 h later and analyzed for FcγRII/III expression by immunofluorescence staining. For FIGS. 4A-B the results represent 2 independent experiments. […] B1b and B2 cells were distinguished based on their differential expression of CD11b. […] Representative peritoneal lymphocytes of CpG-treated MyD88^-/- or wild type mice following CD20 or control mAb (25 μg) treatment. Percentages (±SEM) represent mean B220^+ cell frequencies within the indicated gates 7 days after CD20 mAb treatment (≧3 mice per value) relative to control mAb-treated littermates (n=3). In FIG. 4C-E significant differences between sample means are indicated; *p<0.05, **p<0.01. Results represent 3-4 independent experiments. Immunofluorescence analysis. CD20 expression was visualized using biotin-conjugated mouse CD20 (MB20-11) mAb (Uchida et al., 2004b) plus phycoerythrin-Cy5 (PE-Cy5) streptavidin (eBioscience, San Diego, Calif.). Other mAbs included: B220 (RA3-6B2), CD1d (1B1), CD5 (53-7.3), CD19 (1D3), NK1.1 (PK136), and I-A/I-E (M5/114.15.2) from BD Biosciences (San Jose, Calif.). CD11b (M1/70), CD86 (GL1), F4/80 (BM8), IgM (II/41), Gr-1 (RB6-8C5), and IL-10 (JES5-16E3) mAbs were from eBioscience. TNF-α (MP6-XT22) mAb was from Biolegend (San Diego, Calif.). […]

[4] = compared with parent poly I:poly C; cited from earlier work
BL3750 lymphoma cells = assay: BL3750 lymphoma model; assay type: in vivo, mouse
Experimental: Lymphoma model. BL3750 lymphoma cells were as described (Minard-Colin et al., 2008). This lymphoma model is accepted by those skilled in the art as a standard model for human lymphoma disease. For each experiment, tumor cells were thawed and expanded for 24-48 hours in complete medium (RPMI 1640 media containing 20% fetal bovine serum, 100 U/ml penicillin, 100 μg/ml streptomycin, 2 mM L-glutamine, and 55 μM 2-mercaptoethanol). BL3750 cells in 250 μl PBS were injected subcutaneously into the dorsal skin of recipient mice on day 0. This mouse model of lymphoma is a standard animal model for human lymphoma used and accepted by those skilled in the art. Mice were then given purified mAb in 250 μl of PBS intravenously, and starting on day 7 were monitored daily for tumor development and progression, and survival. Tumor measurements were as described (Minard-Colin et al., 2008).
CD20 immunotherapy and TLR agonist treatments. […] In some experiments, mice were treated with anti-NK1.1 mAb (100 g) on day −4 and day 3 for N K cell depletion. Macrophage deficiency was generated by tail vein injections of clodronate-encapsulated liposomes (Sigma-Aldrich) or control PBS-encapsulated liposomes (Van Rooijen and Sanders, 1994) 0.2 ml given on day −1 and 0.1 ml given on days 2, 5, and 9 (FIG. 3B) or 0.2 ml given on days −2, 1, and 4 (FIG. 3C).

macrophages = assay: In vitro assay of antibody-dependent phagocytosis; assay type: cell-based, mouse
Experimental: In vitro assay of antibody-dependent phagocytosis. Spleen B cells were purified by MACS B cell isolation (Miltenyi Biotech), labeled with CFSE Vybrant™ CFDA SE fluorescent dye (5 μM; Invitrogen) and cultured over night in complete medium. CFSE-labeled B cells were incubated with CD20 mAb (MB20-11) on ice for 1 h, and washed with complete medium to remove unbound mAb. Macrophages were isolated from the peritoneal cavity of thioglycolate-treated mice by lavage. Peritineal macrophages were further purified by adherence to plastic before culture with or without poly I:C (25 μg/ml) in complete medium at 37° C. in a 5% CO2 atmosphere for 18 h. Macrophages and B cells were mixed at a 1:1 ratio and cultured for 2.5 h. The cell mixture was then stained with PE-conjugated CD11b mAb with the percentage of CFSE^+CD11b^+ (double-positive cells) analyzed by flow cytometry.

[5] = 10^5 BL3750 cells day 0, control mAb plus TLR agonist on days 1, 7, 14 and 21

**Q.** Which results are given for “CpG: CpG ODN 1668 (5′tccATGACGTTCCTGAtgcT3′, bases in lower case are phosphorothioate); TLR9 agonist (DNA TCCATGACGTTCCTGATGCT; DNA, linkages s3 o13 s3 (s phosphorothioate, o phosphodiester), methylation of C not given here)”?
**A.** B10pro cell maturation into IL-10-competent B10 cells (mouse spleen B cells): induced significant numbers of B10pro cells to mature; IL-10 secretion [1]: induced IL-10 secretion; B10pro cell maturation into IL-10-competent B10 cells [2]: induced significant numbers of B10pro cells to mature; TNF-α production by monocytes [3]: induced significant TNF-α production; B cell proliferation (purified spleen B cells): proliferated significantly; ability to enhance peritoneal B cell depletion by CD20 mAb (peritoneal B cells): significantly reduced by MyD88-deficiency; FcγRII/III expression by innate effector cells (FcγRII/III): higher levels of FcγRII/III expression

**Q.** With poly I:poly C12U [Ampligen] as the substance, how does the toxicity [4] read?
**A.** lower toxicity

**Q.** For “polyadenylic-polyuridylic acid [Poly (A:U)]”, which “reducing tumor growth in the mouse model” value (BL3750 lymphoma cells; compared with Poly (I:C)) is on record?
**A.** not as effective as Poly (I:C)

**Q.** Which “B10pro cell maturation into IL-10-competent B10 cells” value (mouse spleen B cells) does the source give for “polyinosinic-polycytidylic acid [poly I:C]” here?
**A.** without effect

**Q.** What about the IL-10 secretion [1] of the same substance?
**A.** without effect

**Q.** And the “B10pro cell maturation into IL-10-competent B10 cells” value [2]?
**A.** without effect

**Q.** And the “TNF-α production by monocytes” value [3]?
**A.** induced significant TNF-α production

**Q.** And the B cell proliferation (purified spleen B cells)?
**A.** did not proliferate

**Q.** What about the “phagocytic capacity of macrophages” value (macrophages; macrophages from TLR3^−/− or TRIF^−/− mice) of the same substance?
**A.** unable to augment

**Q.** And the “macrophage phagocytosis of CD20 mAb-coated B cells” value (macrophages; wild type macrophages, poly I:C 25 μg/ml 18 h, 1:1, 2.5 h)?
**A.** significantly enhanced

**Q.** And the “FcγRII/III expression by innate effector cells” value (FcγRII/III)?
**A.** higher levels of FcγRII/III expression

**Q.** And the “effect on mouse survival” value (BL3750 lymphoma cells; [5])?
**A.** significant affect on mouse survival

**Q.** What about the median survival (BL3750 lymphoma cells; [5]) of the same substance?
**A.** 33 days
